Source: US20100087496A1, “NOVEL CINNAMIC AMIDE DERIVATIVES USEFUL AS ION CHANNEL MODULATORS” (NeuroSearch A/S, priority 2006, published 2010)

Target: T1, BK channels heterologously expressed in Xenopus laevis oocytes (Homo sapiens, UniProt Q12791)
T1 construct: expressed in transfected cells; host or cells: Xenopus laevis oocytes
Assay: BK channel opening activity, two-electrode voltage clamp in Xenopus laevis oocytes
Type: cell-based
Conditions: step from −40 mV to +30 mV
Description: In this example the BK channel opening activity of three cinnamic amide derivatives representative of the invention, i.e. Compound 22 (A), Compound 9 (B) and Compound 19 (C), is determined using BK channels heterologously expressed in Xenopus laevis oocytes.
The electrical current through the BK channel is measured conventional two-electrode voltage clamp. BK current is activated by repeated step protocols. In brief, this protocol goes from a resting membrane potential of −40 mV lasting for 5 seconds to a depolarised step to +30 mV lasting for 1 second. The protocol was repeated continuously.
Having reached a stable current level, Compound A (3 μM), Compound B (1 μM) and Compound C (30 μM) was added.

T1 sequence (Q12791 whole entry): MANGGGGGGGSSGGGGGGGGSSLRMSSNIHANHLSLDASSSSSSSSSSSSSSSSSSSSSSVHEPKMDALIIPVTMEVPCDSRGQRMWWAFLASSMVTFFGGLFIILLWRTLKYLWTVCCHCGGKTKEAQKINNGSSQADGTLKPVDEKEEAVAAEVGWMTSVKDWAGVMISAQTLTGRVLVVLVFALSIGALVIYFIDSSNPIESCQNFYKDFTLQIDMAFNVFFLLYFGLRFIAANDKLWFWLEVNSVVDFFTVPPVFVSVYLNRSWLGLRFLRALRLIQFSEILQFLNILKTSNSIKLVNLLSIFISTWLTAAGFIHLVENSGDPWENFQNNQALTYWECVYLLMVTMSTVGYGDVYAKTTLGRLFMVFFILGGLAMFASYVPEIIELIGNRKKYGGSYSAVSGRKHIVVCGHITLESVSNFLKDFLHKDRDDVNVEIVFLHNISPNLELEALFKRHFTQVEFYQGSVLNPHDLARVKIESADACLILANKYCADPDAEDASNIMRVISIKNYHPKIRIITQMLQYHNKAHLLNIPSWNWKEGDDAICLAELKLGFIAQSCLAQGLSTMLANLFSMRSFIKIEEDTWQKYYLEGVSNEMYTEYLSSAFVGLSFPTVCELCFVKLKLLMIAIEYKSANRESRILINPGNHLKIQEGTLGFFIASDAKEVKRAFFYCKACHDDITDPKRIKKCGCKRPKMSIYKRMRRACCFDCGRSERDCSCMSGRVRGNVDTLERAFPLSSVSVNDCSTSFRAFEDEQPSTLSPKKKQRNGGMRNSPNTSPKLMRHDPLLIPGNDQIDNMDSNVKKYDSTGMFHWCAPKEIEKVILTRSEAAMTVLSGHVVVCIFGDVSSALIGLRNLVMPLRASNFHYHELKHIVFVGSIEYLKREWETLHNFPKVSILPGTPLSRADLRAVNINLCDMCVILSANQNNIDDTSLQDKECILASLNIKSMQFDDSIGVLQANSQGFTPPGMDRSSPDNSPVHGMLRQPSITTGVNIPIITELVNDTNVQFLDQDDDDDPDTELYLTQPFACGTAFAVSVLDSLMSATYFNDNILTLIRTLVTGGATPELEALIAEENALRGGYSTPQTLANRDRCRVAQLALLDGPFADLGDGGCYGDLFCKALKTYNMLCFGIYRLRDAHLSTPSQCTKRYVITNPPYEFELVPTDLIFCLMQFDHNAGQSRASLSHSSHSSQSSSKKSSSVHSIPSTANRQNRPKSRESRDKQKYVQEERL

In the case of `O=C(/C=C/c1ccc2ccccc2c1)Nc1cc(Cl)ccc1-c1nnn[nH]1` [Compound 9, (E)-N-[5-Chloro-2-(1H-tetrazol-5-yl)-3-phenyl]-3-naphthalen-2-yl-acrylamide], the “current activated by depolarisation (BK current)” value (“current activated” below) (1 μM) is reported as “marked increase”.

With `O=C(/C=C/c1ccc2ccccc2c1)Nc1cc(Cl)ccc1S(=O)(=O)O` [Compound 19, 4-Chloro-2-((E)-3-naphthalen-2-yl-acryloylamino)-benzenesulfonic acid] the “current activated” value (30 μM) was “marked increase”.

In the case of `O=C(Nc1cc(Cl)ccc1-c1nnn[nH]1)C1=Cc2cc(Cl)ccc2OC1` [Compound 22, 6-Chloro-2H-chromene-3-carboxylic acid [5-chloro-2-(1H-tetrazol-5-yl)-phenyl]-amide], the “current activated” value (3 μM) is reported as “marked increase”.
